In brackets after ≈: the same amount, converted by molar mass.

For this data set the following is noted: buffer; pH 7.4; 200.0 µM.
Usually solubility (kinetic) stands for the concentration staying in solution when a stock, usually in DMSO, is diluted into the medium. Regarding `O=C(C1CCCN(S(=O)(=O)c2ccc(Cl)cc2)C1)N1CCCC1` (centres undefined), the kinetic solubility was 48.7 µg/mL (≈ 136 µM).

In turn, `COc1ccc(C(=O)NCC(=O)OCC(=O)c2c(C)[nH]c3ccccc23)cc1OC` gave a kinetic solubility of 6.1 µg/mL (≈ 14.9 µM).

Regarding `Cc1ccc(/C=N/NC(=O)c2cccnc2)s1`, the kinetic solubility was above 36.8 µg/mL.

`CCOC(=O)C(=CNc1nc2ccc(C(=O)OCC)cc2s1)C(=O)OCC`: the solubility (kinetic) was below 0.4 µg/mL.

In the case of `COc1ccc(CNC(=O)c2cc3cccc(O)c3oc2=N)cc1`, the solubility (kinetic) turned out to be 7.2 µg/mL (≈ 22.2 µM).

As for `O=C(Nc1ccc(Br)cn1)c1cccc2ccccc12`, the solubility (kinetic) turned out to be 0.5 µg/mL (≈ 1.53 µM).

For `CCN(C(=O)/C=C/c1ccc(OC)cc1)C1CCCCC1`, the solubility (kinetic) worked out at 38.3 µg/mL (≈ 133 µM).

As to `O=C1CCc2cc(S(=O)(=O)Nc3ccccc3)ccc2N1`, the kinetic solubility is above 45.4 µg/mL.

On to `COc1ccc(C(=O)OCc2c(C)noc2C)cc1`, for which the solubility (kinetic) was above 39.2 µg/mL.

The compound `CC(C)c1nc2sc3c(=O)[nH]cnc3c2c2c1CCCC2` yielded a kinetic solubility below 0.2 µg/mL.

As to `Cn1c(SCC(=O)N2CCCC2)nc2ccccc21`, the solubility (kinetic) was above 41.3 µg/mL.

Compound `CC(=O)Nc1ccccc1OC(C)C(=O)N1CC(C)CC(C)C1` (centres undefined) yielded a kinetic solubility above 47.8 µg/mL.

The compound `Cc1ccc(NC(=O)N[C@@H](CC(C)C)C(=O)O)c(C)c1` came in with a solubility (kinetic) above 41.8 µg/mL.

`Cc1c(Cl)cccc1NC(=S)N1CCCCCC1` gave a solubility (kinetic) of 29.3 µg/mL (≈ 104 µM).

Consider `NC(=O)c1cc(S(=O)(=O)N2CCOCC2)cs1`, for which the solubility (kinetic) was above 41.4 µg/mL.

With `O=S(=O)(NCC1CCCO1)c1ccccc1F` (centres undefined), the solubility (kinetic) is above 38.9 µg/mL.

Compound `OC(CNCc1ccc(Cl)cc1)C(F)(F)F` (centres undefined) had a kinetic solubility above 38 µg/mL.

In the case of `C=CCn1c(N2CCCC2)nc2c1c(=O)n(C)c(=O)n2C`, the kinetic solubility was above 43.4 µg/mL.

Take `C=CCNC(=S)N1CCC(C(=O)c2ccc(C)cc2)CC1`: the solubility (kinetic) was above 45.4 µg/mL.

Consider `CSc1ccc(/C=C2\NC(=O)NC2=O)cc1`, for which the solubility (kinetic) was determined as 9.8 µg/mL (≈ 41.8 µM).

`Cc1ccc2nc(/N=C(\N)NC(=O)NC3CCCCC3)nc(C)c2c1` came in with a kinetic solubility of 8 µg/mL (≈ 23.5 µM).

For the compound `COc1cc(NC(=O)NC2Cc3ccccc3C2)cc(OC)c1`, the solubility (kinetic) is below 0.3 µg/mL.

Turning to `COc1cccc(OCC(=O)NCC2CCCO2)c1` (centres undefined), the solubility (kinetic) was above 39.8 µg/mL.

In turn, `CC(C)c1cc(C(C)C)c(S(=O)(=O)N2CCNCC2)c(C(C)C)c1` displayed a solubility (kinetic) of 39.3 µg/mL (≈ 111 µM).

Take `COc1cc(N2C(=O)CSC2=S)cc(OC)c1OC`: the solubility (kinetic) was found to be 41 µg/mL (≈ 137 µM).

Consider `O=C(Nc1ccc(F)cc1F)Nc1csc2ccccc12`, for which the kinetic solubility was 0.6 µg/mL (≈ 1.97 µM).

Consider `C=C(C)C(=O)Oc1ccc(N2C(=O)CCC2=O)cc1`, for which the solubility (kinetic) is above 38.9 µg/mL.

`CCCCN(C(=O)C1CCCC1)c1c(N)n(Cc2ccccc2)c(=O)[nH]c1=O` came in with a kinetic solubility of 3.6 µg/mL (≈ 9.36 µM).

For `Cc1ccc(C(O)Cn2cc([N+](=O)[O-])nc2C)cc1` (centres undefined), the solubility (kinetic) is above 39.2 µg/mL.

`Cc1cc(C)c(NC(=O)C(C)N2CCCCCC2)c(C)c1.Cl` (centres undefined): the solubility (kinetic) turned out to be 36.6 µg/mL.

Consider `CC(=O)c1ccc(NC(=O)CCNC(=O)c2ccc(Cl)cc2)cc1`, for which the kinetic solubility turned out to be 5.4 µg/mL (≈ 15.7 µM).

For the compound `CCc1cccc(C)c1NC(=O)CSc1nnc(C)o1`, the kinetic solubility is above 43.7 µg/mL.

`CC(C)(C)c1ccc(CCC2OCC(C[N+]3(C)CCOCC3)O2)cc1.[I-]` (centres undefined): the kinetic solubility was above 71.3 µg/mL.

In turn, `O=C(O)CSc1ccc(S(=O)(=O)N2CCCC2)cn1` gave a solubility (kinetic) above 45.4 µg/mL.

For the compound `O=C(NCc1cccnc1)NC1CC(=O)N(c2ccc3c(c2)OCCO3)C1` (centres undefined), the kinetic solubility is above 55.3 µg/mL.

The compound `CC(=O)NCc1ccc(-c2csc(-c3cccs3)n2)cc1` gave a solubility (kinetic) of 4.8 µg/mL (≈ 15.3 µM).

Take `O=C1CN(S(=O)(=O)c2ccccc2)c2ccccc2N1`: the kinetic solubility was above 43.2 µg/mL.

With `Cc1ccccc1S(=O)(=O)/N=C(/Nc1nc2ccccc2s1)c1ccccc1`, the kinetic solubility turned out to be 1.1 µg/mL (≈ 2.7 µM).

Compound `COc1ccc(CC(=O)NC2CCCc3ccccc32)cc1` (centres undefined) displayed a kinetic solubility of 15.8 µg/mL (≈ 53.5 µM).

In turn, `COc1ccc(NC(=O)C2C3C=CC(C3)C2C(=O)O)cc1` (centres undefined) registered a solubility (kinetic) above 43.1 µg/mL.

The compound `O=C(c1ccccc1Oc1ccc([N+](=O)[O-])cc1)N1CCOCC1` returned a solubility (kinetic) above 49.2 µg/mL.

For `COc1ccccc1C(=O)NC(=O)CSc1cccc[n+]1[O-]`, the solubility (kinetic) is above 47.8 µg/mL.

Turning to `CCOc1ccc2nc(N/C(N)=N/S(C)(=O)=O)nc(C)c2c1`, the kinetic solubility stood at 2.3 µg/mL (≈ 7.11 µM).

Compound `Cc1cc(SCC(=O)Nc2cccnc2Cl)nc2ccccc12` displayed a solubility (kinetic) below 0.2 µg/mL.

The compound `COc1cc(OC)c(N(C)S(=O)(=O)c2cccc(C(=O)Nc3nccs3)c2)cc1Cl` gave a solubility (kinetic) of 4.2 µg/mL (≈ 8.98 µM).

As to `CC1CN(S(=O)(=O)c2cc(C(=O)N(C)Cc3cccs3)ccc2Cl)CC(C)O1` (centres undefined), the kinetic solubility came to 64.6 µg/mL (≈ 146 µM).

Take `Cc1cc(=O)[nH]c2c(C)cc(S(=O)(=O)Nc3ccc(O)cc3)cc12`: the solubility (kinetic) stood at 49.7 µg/mL (≈ 144 µM).

`Cc1ccc(C)c(NC(=O)C2C3C=CC(O3)C2C(=O)O)c1` (centres undefined) showed a kinetic solubility above 43.1 µg/mL.

Turning to `Cc1ccn2cc(-c3cc4ccccc4oc3=O)nc2c1`, the kinetic solubility is 3.1 µg/mL (≈ 11.2 µM).

In the case of `CSc1nc2c(c(=O)[nH]c(=O)n2C)n1Cc1ccc(Cl)cc1`, the solubility (kinetic) stood at 1.2 µg/mL (≈ 3.56 µM).

For `COc1ccc(NC(=O)c2ccc3c(c2)OCO3)cc1S(=O)(=O)N1CCOCC1`, the kinetic solubility was 14.7 µg/mL (≈ 35 µM).

As for `CCN1C(=O)CC(c2cccnc2)=Nc2ccccc21`, the kinetic solubility was above 39.8 µg/mL.

The compound `O=C1CC(C2CCCO2)C(=O)N1c1ccc(Cl)c(Cl)c1` (centres undefined) had a kinetic solubility above 47.1 µg/mL.

`CNC(=O)CSc1nc(-c2ccccc2)c(-c2ccccc2)o1` displayed a kinetic solubility of 3.3 µg/mL (≈ 10.2 µM).

In the case of `Cc1ccc(-c2c[n+]3c(n2-c2ccccc2)CCC3)cc1.[Br-]`, the kinetic solubility is above 53.3 µg/mL.

With `CC(=O)Nc1ccc(Nc2ncnc3ccccc23)cc1`, the kinetic solubility turned out to be 6.5 µg/mL (≈ 23.4 µM).

`Cc1ccc(-c2csc3nc(C(C)C)oc(=O)c23)c(C)c1` displayed a kinetic solubility of 3.9 µg/mL (≈ 13 µM).

As to `COc1ccccc1C(=O)CN1C(=O)NC2(CCCCCC2)C1=O`, the kinetic solubility came to 12.9 µg/mL (≈ 39 µM).

As to `Cc1cc(C)c(NC(=S)N(CCc2ccncc2)C(C)C)c(C)c1`, the solubility (kinetic) turned out to be 48.8 µg/mL (≈ 143 µM).

`CC12CC3(C)CC(C)(C1)CC(C(=O)NCc1ccccn1)(C2)C3` gave a solubility (kinetic) of 42.4 µg/mL (≈ 136 µM).

`CNS(=O)(=O)c1cccc(C(=O)OCC(=O)N2CCN(C(=O)c3ccco3)CC2)c1`: the kinetic solubility is above 65.3 µg/mL.

In the case of `COc1ccccc1C(=O)NCc1ccco1`, the solubility (kinetic) is above 34.7 µg/mL.

Compound `CCOC(=O)C1CCCN(C(=O)c2cc3cc(F)ccc3[nH]2)C1` (centres undefined) displayed a kinetic solubility of 23.9 µg/mL (≈ 75.1 µM).

For the compound `COC(=O)CSc1ncnc2c1sc1nc3c(cc12)COC(C)(C)C3`, the solubility (kinetic) was 1.6 µg/mL (≈ 4.26 µM).

In turn, `NC(=O)c1ccsc1NC(=O)COC(=O)c1ccccn1` returned a kinetic solubility above 45.8 µg/mL.

On to `COc1cc(S(=O)(=O)N2CCOCC2)ccc1NC(=O)COC(=O)c1cc(OC)c(OC)c(OC)c1`, for which the kinetic solubility turned out to be 4.5 µg/mL (≈ 8.58 µM).

With `O=C(NCC1CCCCC1)c1ccc(F)cc1Cl`, the solubility (kinetic) stood at 20.4 µg/mL (≈ 75.6 µM).

`C=CCc1ccccc1OCC(O)CN1C(=O)c2ccccc2C1=O` (centres undefined): the solubility (kinetic) was found to be 46 µg/mL (≈ 136 µM).

`O=C(NC1CC1)C1CCCN1C(=O)NC1CCCCC1` (centres undefined) registered a kinetic solubility above 41.9 µg/mL.

`O=C1CCC/C1=C\Nc1ccc(Cl)c([N+](=O)[O-])c1` displayed a solubility (kinetic) of 7.2 µg/mL (≈ 27 µM).

Regarding `COc1cc(/C=C2\SC(N)=NC2=O)cc(OC)c1`, the kinetic solubility worked out at 3.8 µg/mL (≈ 14.4 µM).

In turn, `CCOC(=O)c1ccc2c(c1)N(CC)C(=O)c1ccccc1S2` yielded a solubility (kinetic) of 13.2 µg/mL (≈ 40.3 µM).

`CCCCc1nc2cc(C(=O)N3CCC(O)CC3)ccc2o1` returned a solubility (kinetic) above 45.4 µg/mL.

Compound `O=C(Nc1ccc(Cl)c(Cl)c1)N1CCCCCC1` showed a kinetic solubility of 0.9 µg/mL (≈ 3.13 µM).

In turn, `Cc1cccc(C)c1NC(=S)NC(C)(C)CO` had a kinetic solubility above 37.9 µg/mL.

`N#Cc1c(-c2ccccc2)cc(-c2ccc(O)cc2)nc1N`: the kinetic solubility was below 0.2 µg/mL.

The compound `O=C(Cc1ccccc1F)Nc1ccc2c(c1)CCC2` had a solubility (kinetic) of 4.7 µg/mL (≈ 17.5 µM).

In turn, `Brc1ccc(COn2ccnc2)cc1` showed a kinetic solubility above 38 µg/mL.

Turning to `OC(CNCc1ccc2c(c1)OCO2)COc1ccccc1` (centres undefined), the kinetic solubility was above 45.2 µg/mL.

The compound `O=C(Nc1ccc(OC(F)F)c(Cl)c1)c1ccccn1` had a kinetic solubility of 1.4 µg/mL (≈ 4.69 µM).

`O=C(NCc1ccc2c(c1)OCO2)Nc1ccc(Cl)cc1` displayed a solubility (kinetic) of 0.8 µg/mL (≈ 2.63 µM).

`O=C1c2ccccc2-c2ccc(C(=O)N3CCCCC3)cc21` showed a solubility (kinetic) of 19 µg/mL (≈ 65.2 µM).

`O=C(O)CC1c2ccccc2CCN1S(=O)(=O)c1ccccc1` (centres undefined) showed a solubility (kinetic) above 49.7 µg/mL.

With `COc1ccccc1CCNS(=O)(=O)c1ccc(C(=O)O)n1C`, the solubility (kinetic) was above 50.8 µg/mL.

Compound `O=C(Nc1ccncc1)c1ccc(N2CCCC2=O)cc1` yielded a solubility (kinetic) above 42.2 µg/mL.

Compound `O=C(COc1ccccc1Cl)Nc1ccc2[nH]c(=O)[nH]c2c1` displayed a solubility (kinetic) of 2 µg/mL (≈ 6.29 µM).

Turning to `O=C(Nc1ccc(Cl)cc1)C1CCN(C(=O)c2ccco2)CC1`, the kinetic solubility was above 49.9 µg/mL.

Take `O=C(Nc1cc(Cl)c(Cl)cc1Cl)c1cccnc1`: the kinetic solubility worked out at 6.1 µg/mL (≈ 20.2 µM).

In turn, `CC1CCCC(C)N1C(=O)COC(=O)CCC(=O)c1ccc(F)cc1` (centres undefined) displayed a solubility (kinetic) above 52.4 µg/mL.

The compound `Cc1ccc(NC(=O)CC(C)CC(=O)NCc2ccccc2)cc1Cl` (centres undefined) showed a kinetic solubility below 0.4 µg/mL.

The compound `O=C(NC(=S)Nc1cccc([N+](=O)[O-])c1)C1CCCC1` had a kinetic solubility of 2.6 µg/mL (≈ 8.86 µM).

Turning to `CC(=O)Nc1ccc(OCC(=O)Nc2ccc(Cl)c(S(=O)(=O)N3CCOCC3)c2)cc1`, the solubility (kinetic) stood at 10.7 µg/mL (≈ 22.9 µM).

`Oc1ccc2ccccc2c1C=NCc1ccccc1`: the solubility (kinetic) was 10.8 µg/mL (≈ 41.3 µM).

On to `CNC(=O)c1c(NC(=O)c2ccc3ncsc3c2)sc(C)c1C`, for which the solubility (kinetic) came out at 2 µg/mL (≈ 5.79 µM).

For the origin of these results see PubChem BioAssay AID1996.
